Laboratory results: a polymer gas permeability compilation

Row | Compound | CH4 permeability | CO2 permeability | H2 permeability | N2 permeability | O2 permeability
1 | *c1c(C)c(C)c(N2C(=O)c3ccc(Oc4cc(C(C)(C)C)ccc4Oc4ccc5c(c4)C(=O)N(*)C5=O)cc3C2=O)c(C)c1C (repeat unit) | 3.1 Barrer | 71 Barrer | 91 Barrer | 2.55 Barrer | 12 Barrer
2 | *CC(*)OC1CCCCC1 (repeat unit) |  | 13.6 Barrer |  | 0.99 Barrer | 3.69 Barrer
3 | *Oc1ccc(S(=O)(=O)c2ccc(Oc3c(C)cc(Cc4cc(C)c(*)c(C)c4)cc3C)cc2)cc1 (repeat unit) | 0.577 Barrer | 15 Barrer | 34.5 Barrer | 0.611 Barrer | 3.3 Barrer
4 | */C(C)=C(/*)[Si](C)(C)c1ccccc1 (repeat unit) | 1.7 Barrer | 37.6 Barrer | 14 Barrer | 1.2 Barrer | 4.4 Barrer
5 | *c1cc(C(c2ccc(O)c(N3C(=O)c4ccc(C(c5ccc6c(c5)C(=O)N(*)C6=O)(C(F)(F)F)C(F)(F)F)cc4C3=O)c2)(C(F)(F)F)C(F)(F)F)ccc1O (repeat unit) | 0.08 Barrer | 9.9 Barrer | 35 Barrer | 0.4 Barrer | 2.6 Barrer
6 | *C(=C(*)c1ccc([Si](C)(C)CCCCCCCC)cc1)c1ccccc1 (repeat unit) |  | 170 Barrer |  | 11 Barrer | 34 Barrer
7 | *c1cc(CCCCCCCCCCCC)c(*)s1 (repeat unit) |  | 88.2 Barrer |  | 9.4 Barrer | 20.2 Barrer
8 | *c1cc(C)c(C)c(N2C(=O)c3ccc(Oc4cc(C(C)(C)C)ccc4Oc4ccc5c(c4)C(=O)N(*)C5=O)cc3C2=O)c1C (repeat unit) | 2.5 Barrer | 63 Barrer | 85 Barrer | 2.2 Barrer | 11 Barrer
9 | *c1ccc(-c2ccc(Oc3ccc(C4(c5ccc(Oc6ccc(-c7ccc(N8C(=O)c9ccc(C(c%10ccc%11c(c%10)C(=O)N(*)C%11=O)(C(F)(F)F)C(F)(F)F)cc9C8=O)cc7)cc6C(F)(F)F)cc5)c5ccccc5C(=O)N4c4ccccc4)cc3)c(C(F)(F)F)c2)cc1 (repeat unit) | 1.01 Barrer | 53.9 Barrer |  | 1.71 Barrer | 10.2 Barrer
10 | *CC(*)(C)C(=O)OCCOCCOCCOCC (repeat unit) | 4.8 Barrer | 74.4 Barrer |  | 2 Barrer | 3.9 Barrer
11 | *CC(*)OC(=O)c1ccccc1 (repeat unit) |  | 6.32 Barrer |  |  | 
12 | *c1c(C)c(C)c(N2C(=O)c3ccc(Oc4c(C)ccc(C)c4Oc4ccc5c(c4)C(=O)N(*)C5=O)cc3C2=O)c(C)c1C (repeat unit) | 1.9 Barrer | 63 Barrer | 100 Barrer | 2.05 Barrer | 11 Barrer
13 | *c1ccc(Oc2ccc(-c3ccc(-c4ccc(-c5ccc(Oc6ccc(N7C(=O)c8ccc(C(c9ccc%10c(c9)C(=O)N(*)C%10=O)(C(F)(F)F)C(F)(F)F)cc8C7=O)cc6)c(C(F)(F)F)c5)cc4)cc3)cc2C(F)(F)F)cc1 (repeat unit) | 1.51 Barrer | 36.6 Barrer |  | 3.11 Barrer | 17.1 Barrer
14 | *Oc1ccc(S(=O)(=O)c2ccc(Oc3ccc(C(c4ccc(*)cc4)(C(F)(F)F)C(F)(F)F)cc3)cc2)cc1 (repeat unit) | 0.345 Barrer | 8.45 Barrer | 15.1 Barrer | 0.431 Barrer | 2.33 Barrer
15 | *OC(=O)c1cccc(C(=O)Oc2c(C)cc(C(C)(C)c3cc(C)c(O*)c(C)c3)cc2C)c1 (repeat unit) | 0.53 Barrer | 24 Barrer |  | 0.68 Barrer | 3.5 Barrer
16 | *C(F)(F)C1(F)OC(F)(F)C(F)(F)C1(F)C(*)(F)F (repeat unit) | 2 Barrer | 35 Barrer | 59 Barrer | 5 Barrer | 16 Barrer
17 | *OC(=O)Oc1c(Br)cc(C(C)(C)c2cc(Br)c(*)c(Br)c2)cc1Br (repeat unit) | 0.123 Barrer | 4.21 Barrer | 43 Barrer | 0.191 Barrer | 1.43 Barrer
18 | *c1ccc(C(C)(C)c2cccc(N3C(=O)c4ccc(C(c5ccc6c(c5)C(=O)N(*)C6=O)(C(F)(F)F)C(F)(F)F)cc4C3=O)c2)cc1 (repeat unit) | 0.217 Barrer | 10.7 Barrer | 38.2 Barrer | 0.473 Barrer | 2.89 Barrer
19 | *C(=C(*)c1ccc([Si](c2ccccc2)(c2ccccc2)c2ccccc2)cc1)c1ccccc1 (repeat unit) | 5.58 Barrer | 78.8 Barrer | 51.7 Barrer | 2.78 Barrer | 12.1 Barrer

Row | Compound | CH4 permeability | CO2 permeability | H2 permeability | N2 permeability | O2 permeability
20 | *Oc1ccc(S(=O)(=O)c2ccc(Oc3c(C)cc(C(C)(C)c4cc(C)c(*)c(C)c4)cc3C)cc2C(O)(C(F)(F)F)C(F)(F)F)c(C(O)(C(F)(F)F)C(F)(F)F)c1 (repeat unit) |  | 30 Barrer |  | 1.5 Barrer | 8.5 Barrer
21 | *O[Si](C)(C)CCCCCCCC[Si](*)(C)C (repeat unit) | 360 Barrer | 1200 Barrer |  |  | 237 Barrer
22 | *C(=C(*)c1ccc2c(c1)C(C)(C)c1ccccc1-2)c1ccc([Si](C)(C)C)cc1 (repeat unit) | 525 Barrer | 1900 Barrer | 1040 Barrer | 200 Barrer | 455 Barrer
23 | *c1cccc(-c2nc3cc(-c4ccc5[nH]c(*)nc5c4)ccc3[nH]2)n1 (repeat unit) |  |  | 1.38 Barrer |  | 0.045 Barrer
24 | *Cc1ccc(C*)c(CC)c1 (repeat unit) |  | 1.89 Barrer | 4.31 Barrer | 0.0904 Barrer | 0.5 Barrer
25 | *c1cc2c(cc1C)-c1cc(C)c(N3C(=O)c4ccc(-c5ccc6c(c5)C(=O)N(*)C6=O)cc4C3=O)cc1S2(=O)=O (repeat unit) | 0.037 Barrer | 2.74 Barrer |  | 0.0763 Barrer | 0.577 Barrer
26 | *c1ccc2c(c1)C(=O)n1c-2nc2ccc(Oc3ccc4c(c3)nc3n4C(=O)c4ccc(C(*)(C(F)(F)F)C(F)(F)F)cc4-3)cc21 (repeat unit) |  |  | 54.9 Barrer | 0.81 Barrer | 5.04 Barrer
27 | *Oc1ccc(C(=O)c2ccc(Oc3c(C)cc(-c4cc(C)c(*)c(C)c4)cc3C)cc2)cc1 (repeat unit) | 1.02 Barrer | 19.4 Barrer |  | 0.971 Barrer | 4.76 Barrer
28 | *CCSS* (repeat unit) |  | 3.14 Barrer | 1.57 Barrer |  | 0.288 Barrer
29 | *Oc1ccc(C(c2ccc(OC(=O)c3cccc(C(*)=O)c3)cc2)(C(F)(F)F)C(F)(F)F)cc1 (repeat unit) | 0.736 Barrer | 16.6 Barrer | 37.3 Barrer | 0.958 Barrer | 4.54 Barrer
30 | *c1ccc2c(-c3c(O)ccc4cc(N5C(=O)c6ccc(C(c7ccc8c(c7)C(=O)N(*)C8=O)(C(F)(F)F)C(F)(F)F)cc6C5=O)ccc34)c(O)ccc2c1 (repeat unit) | 0.09 Barrer | 4.32 Barrer | 5.95 Barrer | 0.14 Barrer | 0.98 Barrer
31 | *Oc1ccc(S(=O)(=O)c2ccc(Oc3ccc(Cc4ccc(*)cc4)cc3)cc2)cc1 (repeat unit) | 0.188 Barrer | 4.5 Barrer |  | 0.2 Barrer | 1.1 Barrer
32 | *c1ccc(Oc2ccc(N3C(=O)c4ccc(C(c5ccc6c(c5)C(=O)N(*)C6=O)(C(F)(F)F)C(F)(F)F)cc4C3=O)cc2)cc1 (repeat unit) | 0.407 Barrer | 20.6 Barrer | 44 Barrer | 0.797 Barrer | 4.21 Barrer
33 | *Oc1cc2c(cc1O*)C(C)(C)CC1(CC(C)(C)c3cc4c(cc3O1)Oc1c(C#N)c(*)c(*)c(C#N)c1O4)O2 (repeat unit) | 93 Barrer | 1540 Barrer | 750 Barrer | 61.5 Barrer | 212 Barrer
34 | *OC1OC(COC(=O)NC(C)(C)C)C(*)C(OC(C)=O)C1OC(C)=O (repeat unit) | 1.4 Barrer | 28.5 Barrer | 31 Barrer | 0.98 Barrer | 4.3 Barrer
35 | *c1ccc(Sc2ccc(Sc3ccc(Sc4ccc(N5C(=O)c6ccc(C(c7ccc8c(c7)C(=O)N(*)C8=O)(C(F)(F)F)C(F)(F)F)cc6C5=O)cc4)cc3)cc2)cc1 (repeat unit) | 0.22 Barrer | 8.37 Barrer |  | 0.37 Barrer | 1.72 Barrer
36 | *Oc1ccc(C(c2ccc(Oc3ccc(C(=O)c4ccc(C(c5ccc(C(=O)c6ccc(*)cc6)cc5)(C(F)(F)F)C(F)(F)F)cc4)cc3)cc2)(C(F)(F)F)C(F)(F)F)cc1 (repeat unit) | 0.477 Barrer | 11.5 Barrer | 31.4 Barrer | 0.76 Barrer | 3.7 Barrer
37 | *C/C=C(/C)C* (repeat unit) | 29.6 Barrer | 153 Barrer | 49 Barrer | 8.75 Barrer | 23.3 Barrer
